Reference: patent publication US20140243422A1, “METHODS OF TREATING BEHAVIORAL AND PSYCHIATRIC DISORDERS” (ELAN PHARMACEUTICALS, INC., priority 2011, published 2014)

System: patients with mild to moderate AD (MMSE 16-26)
Test: Phase 2 trial: Neuropsychiatric Inventory (NPI-12) scores, cluster scores and emergence of new NPS
Assay type: in vivo, human
Text: Several scales have been used for the assessment of BPSD. These include scales that have been specifically designed for studying NPS in patients with dementia, such as the “Behavioral Pathology in AD Rating Scale” (BEHAVE-AD, Reisberg et al. BEHAVE-AD: A clinical rating scale for the assessment of pharmacologically remediable behavioral symptomatology in Alzheimer's disease. In: Altman H J, editor. Alzheimer's Disease: Problems, prospects, and perspectives. Plenum; New York: 1987. pp. 1-161996), CERAD behavior rating scale for dementia (BRSD, Tariot 1996, International Psychogeriatrics, 8(Suppl. 3):317-320), and the Neuropsychiatric Inventory (NPI, Cummings et al. 1994, Neurology. 1994; 44:2308-14). The NPI which was designed to evaluate the broad range of behavioral symptoms that may develop in dementia patients, is a well validated instrument and has been widely used in BPSD studies and in AD treatment trials. The original version assessed 10 symptoms or items, including: delusions, hallucinations, agitation/aggression, depression/dysphoria, anxiety, apathy, irritability, euphoria/elation, disinhibition, and aberrant motor behavior; and was subsequently updated to include appetite changes and nighttime behaviors (sleep disturbances). The NPI is administered by a trained individual as a structured interview with the patient's caregiver. Each item is assessed by a scripted screening question, and the frequency and severity of each item is scored from 0-4 (0: absent, 1: occasional or less than once per week to 4 occurs at least daily), and from 1-3 (1: mild or produces little distress in patient; 2: moderate or more disturbing to patient but can be re-directed by caregiver; and 3: severe or very disturbing to patient and difficult to re-direct). The total item-score is then derived from frequency multiplied by the severity score; and the total NPI score (NPI-T) is derived from addition of all item scores, with the range of scores being from 0 (no NPS at all) to 144 (all 12 NPS are present at maximum severity at daily basis). In the majority of the drug trials in Mild/Moderate AD, the mean total NPI scores are ˜10-12 at baseline. The Phase 2 study described in the example below utilized the NPI-12 item assessment; and the mean total NPI scores were between 8 and 10 at baseline. This baseline severity is slightly lower than the range reported in many Mild to Moderate AD trials reported in the literature.
In a Phase 2, parallel arm, dose-ranging, placebo-controlled, double-blind, multicenter trial in patients with mild to moderate AD (MMSE 16-26), scyllo-inositol was administered to study subjects in immediate release tablets twice daily at the dosage level set for each study arm or identical-appearing placebo tablets were administered in the control arm. […] The study included neuropsychological assessments using the NPI-12 item scale, as well as assessments of scyllo-Inositol (SI) and myo-inositol (MI) brain levels using magnetic resonance spectroscopy (MRS).
The present study was a dose ranging study in Mild and Moderate AD patients (defined as having MMSE scores of 16-26 inclusive), and included 3 doses of scyllo-insoitol given bid (250 mg, 1000 mg, and 2000 mg) and placebo. The study was of 78 weeks duration and enrolled a total of 353 patients, and 351 received study drug (safety population). Due to safety findings in the 2 highest dose groups, these 2 groups were discontinued and the study's final efficacy analysis was based only on the 250 mg and placebo groups. […] In the overall study population, total randomized to all 4 dose groups=353, total that received study drug=351 (safety population, at any dose). For placebo and 250 mg group, the overall m-ITT (modified intent-to-treat)=166, overall PPS (per protocol set)=96.
A potentially disease-modifying drug, by altering regional neuronal dysfunction, may prevent or delay the emergence of abnormal behaviors as quantified by the NPI outcomes. […]

[1] = 250 mg bid vs placebo, Mild AD, m-ITT

O[C@H]1[C@H](O)[C@@H](O)[C@H](O)[C@@H](O)[C@@H]1O [scyllo-inositol] was tested, and the “Score Difference (Summary Statistics), Affective Syndrome (6 symptoms)” value (250 mg bid vs placebo, Mild AD MMSE 22-26, m-ITT) was “+3.47”, the “Score Difference (MMRM), Affective Syndrome (Depression, Anxiety, Agitation, Nighttime Behavior, Appetite Changes, Apathy)” value (250 mg bid vs placebo, Mild AD MMSE 22-26, m-ITT, factor-analysis cluster) was “+1.36” and the “Score Difference (MMRM), Apathy” value [1] was −0.35. The “Score Difference (MMRM), Behavioral cluster: Aberrant Motor/Nighttime Behaviors” value [1] was “+0.05”, the “Score Difference (MMRM), Frontal cluster: Elation and Disinhibition” value [1] was “+0.33” and the “Score Difference (MMRM), Psychotic cluster: Delusions and Hallucinations” value [1] was −0.29. The “Score Difference (MMRM), Affective: Depression and Anxiety” value (250 mg bid vs placebo, Moderate AD MMSE 16-21, m-ITT) was “+0.94”, the “improvement of Affective Syndrome score change compared to placebo group, by MMRM” value (250 mg bid, Mild AD MMSE 22-26) was 35% and the “improvement of Affective Syndrome score change compared to placebo group, by summary statistics” value (250 mg bid, Mild AD MMSE 22-26) was 91%. The “NPI total score benefit compared to placebo” value (250 mg bid, Mild MMSE 22-26, m-ITT, 78 weeks) was 44%, the “NPI total score numerical difference from placebo” value (250 mg bid, Mild MMSE 22-26, m-ITT, 78 weeks, not statistically significant) was about 2 points and the “proportion of patients who developed at least 2 new symptoms, lower versus placebo” value (250 mg bid, Mild m-ITT MMSE 22-26, over 78 weeks, p<0.05) was 21.5%. For the same molecule, the “NPI total score improvement versus placebo” value (250 mg bid, Moderate MMSE 16-21, PP analysis) was about 50%, the “NPI total score, better than placebo” value (250 mg bid, Moderate MMSE 16-21, PP analysis, 78 weeks, not statistically significant) was about 4 points and the “NPI total score versus placebo” value (250 mg bid, Moderate MMSE 16-21, m-ITT analysis) was “did not show significant differences from placebo”. For the same molecule, the “proportion of patients who developed at least 2 new symptoms, lower versus placebo” value (250 mg bid, Moderate m-ITT MMSE 16-21, over 78 weeks, p=0.33) was 12.4%, the “proportion of patients who developed at least 4 new symptoms, lower versus placebo” value (250 mg bid, Moderate m-ITT MMSE 16-21, over 78 weeks, p=0.34) was 12.1% and the “increase in prevalence of irritability, baseline to end of study” value (250 mg group, Mild, week 78) was 10%. For the same molecule, the “prevalence of apathy, anxiety, agitation, appetite and sleep change, baseline to end of study” value (250 mg group, Mild, week 78) was “remained stable”, the “emergence of depression, anxiety, appetite change, agitation and apathy at any time during the study” value (250 mg, Mild MMSE 22-26) was “decreases the emergence” and the “emergence of NPS at any time during the study” value (250 mg, Moderate MMSE 16-21) was “decreased emergence of most NPS”. The emergence of irritability (250 mg, Moderate MMSE 16-21) was “more prevalent with treatment”, the “Score Difference (MMRM), Affective: Depression and Anxiety” value (Moderate AD, PPS) was “+1.07” and the “Score Difference (MMRM), Apathy” value (Moderate AD, PPS) was “+0.14”. For the same molecule, the “Score Difference (MMRM), Behavioral: Aberrant Motor, Nighttime Behaviors” value (Moderate AD, PPS) was “+1.42”, the “Score Difference (MMRM), Frontal: Elation and Disinhibition” value (Moderate AD, PPS) was “+0.68” and the “Score Difference (MMRM), Psychotic: Delusions and Hallucinations” value (Moderate AD, PPS) was “+1.32”. The “Score Difference (summary statistics), Affective: Depression and Anxiety” value (Moderate AD, PPS) was “+0.06”, the “Score Difference (summary statistics), Apathy” value (Moderate AD, PPS) was “+0.68” and the “Score Difference (summary statistics), Behavioral: Aberrant Motor, Nighttime Behaviors” value (Moderate AD, PPS) was “+1.96”. The “Score Difference (summary statistics), Frontal: Elation and Disinhibition” value (Moderate AD, PPS) was “+0.53”, the “Score Difference (summary statistics), Psychotic: Delusions and Hallucinations” value (Moderate AD, PPS) was “+0.71” and the “Score Difference (MMRM), Apathy” value (Moderate AD, m-ITT) was “+0.97”. The “Score Difference (MMRM), Behavioral: Aberrant Motor, Nighttime Behaviors” value (Moderate AD, m-ITT) was “+0.11”, the “Score Difference (MMRM), Frontal: Elation and Disinhibition” value (Moderate AD, m-ITT) was “+0.56” and the “Score Difference (MMRM), Psychotic: Delusions and Hallucinations” value (Moderate AD, m-ITT) was −0.52. For the same molecule, the “Score Difference (summary statistics), Affective: Depression and Anxiety” value (Moderate AD, m-ITT) was −0.15, the “Score Difference (summary statistics), Apathy” value (Moderate AD, m-ITT) was “+1.09” and the “Score Difference (summary statistics), Behavioral: Aberrant Motor, Nighttime Behaviors” value (Moderate AD, m-ITT) was “+1.76”. The “Score Difference (summary statistics), Frontal: Elation and Disinhibition” value (Moderate AD, m-ITT) was “+0.48”, the “Score Difference (summary statistics), Psychotic: Delusions and Hallucinations” value (Moderate AD, m-ITT) was “+0.34” and the “emergence of depression and/or anxiety by plasma AUC quartile” value (plasma AUC corresponding to the 250 mg bid dose (second quartile)) was “significant decrease”.
